Measured values as given in US6410533B1, “Antibacterial compounds” (Genzyme Corporation, priority 2000, dated 2002).
Values after ≈ are worked out from the molar mass of the structure shown. Read-outs that look alike come from different tables or passages of the source.

Columns and labels:
[1] = tested on: Staphylococcus aureus bacteria (ATCC 9604 SV); assay: IC50 determination, growth inhibition by turbidity at 550 nm; type: cell-based; conditions: Staphylococcus aureus ATCC 9604 SV, turbidity at 550 nm after 3-5 h at 37° C.
Summary of the method: (§1)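 MIC: broth microdilution per NCCLS in Mueller-Hinton broth; overnight culture adjusted to 0.05 McFarland and diluted twenty-fold into compound-containing broth. IC50: inoculum at 0.1 McFarland diluted two-fold into TB broth with compound, 3–5 h at 37° C. Turbidity at 550 nm; IC50 is the concentration giving 50% growth inhibition.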

[2] = tested on: methicillin-resistant Staphylococcus aureus (ATCC 33591); assay: In vivo mouse intraperitoneal infection, mortality and % survivors over 7 days; conditions: MRSA ATCC 33591 i.p., ICR mice; for In Vivo, single dose (% of mice rescued): single dose 1 h post inoculation; for In Vivo, double dose (% of mice rescued): 1 and 5 h post inoculation
Summary of the method: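 Male ICR mice (20 g, 10 per group) were infected i.p. with 2-3×10^7 CFU/mouse (LD90-100) of MRSA ATCC 33591 in broth with 5% mucin. Compound in 1% cremophore EL/saline was given s.c. at 1 h, or at 1 and 5 h, post-infection. Mortality and % survivors were recorded over 7 days.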

[3] = tested on: Staphylococcus aureus bacteria (ATCC 9604 SV); assay: Minimal inhibitory concentration (MIC), broth microdilution; type: cell-based; conditions: 24 h at 37° C.
Summary of the method: as §1

[4] = Staphylococcus aureus ATCC 9604 SV
[5] = ATCC9604, Staphylococcus aureus ATCC 9604 SV, read-out: MIC

O=C(Nc1cc(Cl)cc(Cl)c1)Nc1cc(-c2cccs2)nn1-c1ccc(Br)cc1 [Compound 108]
IC50 [1]: 194 nM | In Vivo, single dose (% of mice rescued) ([2]; 2 mg/kg s.c.): 0% @ 2 mg/kg | In Vivo, single dose (% of mice rescued) ([2]; 20 mg/kg s.c.): 0% @ 20 mg/kg | MIC [3, 4]: >25.4 µg/mL

O=C(Nc1cc(C(F)(F)F)cc(C(F)(F)F)c1)Nc1cc(-c2cccs2)nn1-c1ccc(Br)cc1 [Compound 109]
IC50 [1]: 155 nM | In Vivo, single dose (% of mice rescued) ([2]; 2 mg/kg s.c.): 25% @ 2 mg/kg | In Vivo, single dose (% of mice rescued) ([2]; 20 mg/kg s.c.): 25% @ 20 mg/kg | MIC [3, 4]: <0.863 µg/mL

O=C(Nc1cc(Cl)cc(Cl)c1)Nc1cc(-c2ccsc2)nn1-c1ccc(Br)cc1 [Compound 110]
IC50 [1]: 164 nM | In Vivo, single dose (% of mice rescued) ([2]; 2 mg/kg s.c.): 0% @ 2 mg/kg | In Vivo, single dose (% of mice rescued) ([2]; 20 mg/kg s.c.): 0% @ 20 mg/kg | MIC [3, 4]: 25.4 µg/mL (≈ 50 µM)

O=C(Nc1cc(C(F)(F)F)cc(C(F)(F)F)c1)Nc1cc(-c2ccsc2)nn1-c1ccc(Br)cc1 [Compound 111]
IC50 [1]: 126 nM | In Vivo, single dose (% of mice rescued) ([2]; 2 mg/kg s.c.): 0% @ 2 mg/kg | In Vivo, single dose (% of mice rescued) ([2]; 20 mg/kg s.c.): 0% @ 20 mg/kg | MIC [3, 4]: <0.863 µg/mL

O=C(Nc1cc(Cl)cc(Cl)c1)Nc1cc(-c2ccco2)nn1-c1ccc(Br)cc1 [Compound 112]
IC50 [1]: 232 nM | In Vivo, single dose (% of mice rescued) ([2]; 2 mg/kg s.c.): 0% @ 2 mg/kg | In Vivo, single dose (% of mice rescued) ([2]; 20 mg/kg s.c.): 0% @ 20 mg/kg | MIC [3, 4]: 6.15 µg/mL (≈ 12.5 µM)

O=C(Nc1cc(C(F)(F)F)cc(C(F)(F)F)c1)Nc1cc(-c2ccco2)nn1-c1ccc(Br)cc1 [Compound 113]
IC50 [1]: 152 nM | In Vivo, single dose (% of mice rescued) ([2]; 2 mg/kg s.c.): 25% @ 2 mg/kg | In Vivo, single dose (% of mice rescued) ([2]; 20 mg/kg s.c.): 0% @ 20 mg/kg | MIC [3, 4]: <0.839 µg/mL

O=C(Nc1cc(Cl)cc(Cl)c1)Nc1cc(-c2cccnc2)nn1-c1ccc(Br)cc1 [Compound 116]
IC50 [1]: 391 nM | In Vivo, single dose (% of mice rescued) ([2]; 2 mg/kg s.c.): 0% @ 2 mg/kg | In Vivo, single dose (% of mice rescued) ([2]; 20 mg/kg s.c.): 0% @ 20 mg/kg | MIC [3, 4]: 3.02 µg/mL (≈ 6 µM)

O=C(Nc1cc(C(F)(F)F)cc(C(F)(F)F)c1)Nc1cc(-c2cccnc2)nn1-c1ccc(Br)cc1 [Compound 117, 1-(3,5-Bis-trifluoromethyl-phenyl)-3-[2-(4-bromo-phenyl)-5-pyridin-3-yl-2H-pyrazol-3-yl]-urea]
IC50 ([1]; ATCC9604): 238 nM | In Vivo, single dose (% of mice rescued) ([2]; 2 mg/kg s.c.): 25% @ 2 mg/kg | In Vivo, single dose (% of mice rescued) ([2]; 20 mg/kg s.c.): 0% @ 20 mg/kg | MIC [3, 5]: 3.42 µg/mL (≈ 6 µM)

O=C(Nc1cc(Cl)cc(Cl)c1)Nc1cc(-c2ccccc2)nn1CC(F)(F)F [Compound 120]
IC50 [1]: 291 nM | In Vivo, single dose (% of mice rescued) ([2]; 2 mg/kg s.c.): 0% @ 2 mg/kg | In Vivo, single dose (% of mice rescued) ([2]; 20 mg/kg s.c.): 0% @ 20 mg/kg | MIC [3, 4]: >21.5 µg/mL

O=C(Nc1cc(C(F)(F)F)cc(C(F)(F)F)c1)Nc1cc(-c2ccccc2)nn1CC(F)(F)F [Compound 121]
IC50 [1]: 84 nM | In Vivo, single dose (% of mice rescued) ([2]; 2 mg/kg s.c.): 0% @ 2 mg/kg | In Vivo, single dose (% of mice rescued) ([2]; 20 mg/kg s.c.): 0% @ 20 mg/kg | MIC [3, 4]: <1.49 µg/mL

O=C(Nc1cc(C(F)(F)F)cc(C(F)(F)F)c1)Nc1nc(-c2ccc(F)c(F)c2)cs1 [Compound 151]
IC50 [1]: 132 nM | In Vivo, single dose (% of mice rescued) ([2]; 2 mg/kg s.c.): 0% @ 2 mg/kg | In Vivo, single dose (% of mice rescued) ([2]; 20 mg/kg s.c.): 0% @ 20 mg/kg | MIC [3, 4]: 1.40 µg/mL (≈ 3 µM)

Cc1cc(-c2csc(NC(=O)Nc3cc(C(F)(F)F)cc(C(F)(F)F)c3)n2)ccc1F [Compound 152]
IC50 [1]: 171 nM | In Vivo, single dose (% of mice rescued) ([2]; 2 mg/kg s.c.): 0% @ 2 mg/kg | In Vivo, single dose (% of mice rescued) ([2]; 20 mg/kg s.c.): 0% @ 20 mg/kg | MIC [3, 4]: 1.39 µg/mL (≈ 3 µM)

O=C(Nc1ccc(F)c(C(F)(F)F)c1)Nc1nc(-c2ccc(F)c(F)c2)cs1 [Compound 168]
IC50 [1]: 180 nM | In Vivo, single dose (% of mice rescued) ([2]; 2 mg/kg s.c.): 0% @ 2 mg/kg | In Vivo, single dose (% of mice rescued) ([2]; 20 mg/kg s.c.): 0% @ 20 mg/kg | MIC [3, 4]: <0.626 µg/mL

O=C(NCc1cccc(Cl)c1)Nc1nc(-c2ccc(Br)cc2)cs1 [Compound 175, 1-[4-(4-Bromo-phenyl)-thiazol-2-yl]-3-(3-chloro-benzyl)-urea]
IC50 ([1]; ATCC9604): 1390 nM | In Vivo, double dose (% of mice rescued) ([2]; 2 × 2 mg/kg s.c.): 0% @ 2 × 2 mg/kg | In Vivo, double dose (% of mice rescued) ([2]; 2 × 20 mg/kg s.c.): 25% @ 2 × 20 mg/kg | MIC [3, 5]: 5.28 µg/mL (≈ 12.5 µM)
